Measurements from patent US10760130B2, “Predictive biomarker for hypoxia-activated prodrug therapy” (MOLECULAR TEMPLATES, INC., priority 2014, dated 2020).

What was measured:
[1] = test system: locally advanced or metastatic pancreatic cancer; conditions: cited from earlier work
[2] = test system: panel of 11 cancer cell-line derived models; conditions: tumor xenografts, variety of tumor types; cited from earlier work
[3] = test system: locally advanced or metastatic pancreatic cancer; test: TH-CR-404 Phase II clinical trial in pancreatic cancer (NCT01144455); type: in vivo, human
Protocol: In the TH-CR-404 Phase II clinical trial in pancreatic cancer (NCT01144455), pancreatic cancer patients with locally advanced or metastatic disease were randomized in three study arms to receive Gemcitabine (Gem) therapy or the combination of Gemcitabine with one of 2 dose levels of TH-302. TH-302 was administered either at 240 or 340 mg/m^2 by intravenous infusion. A total of 214 patients were enrolled (Gemcitabine arm, n=69; Gemcitabine+TH-302 240 mg/m^2, n=71; Gemcitabine+TH-302 340 mg/m^2, n=74).
To search for potentially predictive serum biomarkers of the clinical benefit derived from TH-302 hypoxia-activated therapy, an initial search of candidate biomarkers was conducted from the trial pre-treatment serum samples using a multiplexed bead-based immunoassay (AssayGate, Inc., Ijamsville, Md.). When measuring serum samples for ENO1 and ENO2 protein levels by means of this bead-based, suspension immunoassay format for ENO1, the limit of detection of the assay was 1.8 ng/ml. For ENO2, the assay sensitivity was 1.2 ng/ml.
Following the identification of ENO2 as a potentially predictive biomarker for the clinical benefit derived from TH-302, the levels of ENO1 were tested in the same patient serum samples (Harris A L, 2002, Nat Rev Cancer 2: 38-47; Semenza G L, 2003, Nat Rev Cancer 3: 721-732). High levels of ENO1 were associated with improved PFS and OS in Gemcitabine+TH-302 340 mg/m^2 patient samples in this trial (FIG. 2). These associations were shown using the ENO1 cut-off value of the assay sensitivity limit (1.8 ng/ml) (FIGS. 2A and 2B).

## Cn1c(COP(=O)(NCCBr)NCCBr)cnc1[N+](=O)[O-] [TH-302, (2-bromoethyl)({[(2-bromoethyl)amino][(2-nitro-3-methylimidazol-4-yl)methoxy]phosphoryl})amine]
[1]; Gemcitabine+TH-302 340 mg/m^2 (high-dose group) vs Gemcitabine alone, intravenous infusion, p=0.008
  progression free survival (PFS) hazard ratio (HR): 0.58
[1]; Gemcitabine+TH-302 groups (240 or 340 mg/m^2) compared to Gemcitabine alone
  primary endpoint: progression free survival (PFS): improved progression free survival
[2]
  monotherapy efficacy (tumor growth delay): modest
[3]; Gem vs Gem+TH-302 340 mg/m^2, ENO2 median cut-off 20.3913 ng/ml, FIG. 1A
  difference between treatment groups of median PFS time among patients with high ENO2: more pronounced
[3]; Gem vs Gem+TH-302 340 mg/m^2, ENO2 median cut-off 20.3913 ng/ml, FIG. 1B
  difference between treatment groups of median OS time among patients with high ENO2: more pronounced
[3]; Gemcitabine+TH-302 340 mg/m^2, ENO1 cut-off 1.8 ng/ml (more pronounced at 2.3 and 3.2 ng/ml), FIG. 2B-2D
  OS in patients with high serum ENO1 levels: improved
[3]; Gemcitabine+TH-302 340 mg/m^2, ENO1 cut-off 1.8 ng/ml, FIG. 2A
  PFS in patients with high serum ENO1 levels: improved
